ChEMBL document CHEMBL4680247, “Design, synthesis, and biological evaluation of 3-amino-2-oxazolidinone derivatives as potent quorum-sensing inhibitors of Pseudomonas aeruginosa PAO1” (Eur J Med Chem, 2020)
pIC50: −log10 of the molar value. Converted amounts (≈) assume the structure as drawn. The source made the active and inactive calls. The calls are words filed in the database; no cut-off is given here.

Columns and labels:
[1] = system: Pseudomonas aeruginosa; assay: Antibacterial activity against Pseudomonas aeruginosa PAO1 planktonic cells assessed as reduction in bacterial growth after 18 hrs by resazurin dye based assay; settings: PAO1, 18 h
[2] = system: Pseudomonas aeruginosa; assay: Antibacterial activity against Pseudomonas aeruginosa PAO1 biofilm cells assessed as reduction in bacterial growth after 2 days by resazurin dye based assay; settings: PAO1, 48 h
[3] = Inhibition of quorum sensing in Chromobacterium violaceum CV026 mini-Tn5 mutant after 12 hrs in presence of C6-HSL
[4] = system: Chromobacterium violaceum; assay: Antibacterial activity against Chromobacterium violaceum CV026 mini-Tn5 mutant; format: functional, organism-based
[5] = system: Chromobacterium violaceum; assay: Inhibition of quorum sensing in Chromobacterium violaceum CV026 mini-Tn5 mutant at 2.5 to […] after 12 hrs in presence of C6-HSL
[6] = system: Pseudomonas aeruginosa PAO1; assay: Inhibition of quorum sensing RhlAB in Pseudomonas aeruginosa PAO1 assessed as reduction in rhamnolipid level at 162.5 uM after 48 hrs by sulfuric acid-orcinol method relative to control
[7] = system: Pseudomonas aeruginosa; assay: Antibacterial activity against Pseudomonas aeruginosa PAO1 biofilm cells assessed as reduction in microbial growth at 10 uM after 6 days; format: functional, organism-based; settings: time 6.0 day
[8] = system: Pseudomonas aeruginosa PAO1; assay: Inhibition of quorum sensing las in Pseudomonas aeruginosa PAO1 assessed as reduction in protease level at 20 to 162.5 uM after 16 hrs; settings: dose 20-162.5 µM
[9] = system: Pseudomonas aeruginosa; assay: Antibacterial activity against Pseudomonas aeruginosa PAO1 biofilm cells assessed as reduction in microbial growth under sonication at 0.25 ug/ml after 6 days; format: functional, organism-based; settings: dose 0.25 µg/ml, time 6.0 day
[10] = system: Pseudomonas aeruginosa; assay: Antibacterial activity against Pseudomonas aeruginosa PAO1 infected in Caenorhabditis elegans N2 strain assessed as increase in Caenorhabditis elegans survival rate at 162.5 uM up to 240 hrs relative to control; format: functional; settings: time hrs <=240
[11] = system: Pseudomonas aeruginosa; assay: Antibacterial activity against Pseudomonas aeruginosa ATCC 27853 planktonic cells assessed as reduction in bacterial growth after 18 hrs by resazurin dye based assay; format: functional
[12] = system: Pseudomonas aeruginosa; assay: Antibacterial activity against Pseudomonas aeruginosa PAO1 infected in Caenorhabditis elegans N2 strain assessed as increase in Caenorhabditis elegans survival rate at 162.5 uM after 120 hrs relative to control; format: functional
[13] = system: Pseudomonas aeruginosa PAO1; assay: Inhibition of quorum sensing lasB in Pseudomonas aeruginosa PAO1 assessed as reduction in elastase level at 162.5 uM after 16 hrs by elastin Congo red method relative to control
[14] = system: Pseudomonas aeruginosa; assay: Inhibition of biofilm formation in Pseudomonas aeruginosa PAO1 at 162.5 uM after 20 hrs by crystal violet assay relative to control; format: functional
[15] = system: Pseudomonas aeruginosa PAO1; assay: Inhibition of quorum sensing Rhl/PQS in Pseudomonas aeruginosa PAO1 assessed as reduction in pyocyanin level at 20 to 162.5 uM after 16 hrs; settings: dose 20-162.5 µM
[16] = system: Pseudomonas aeruginosa; assay: Inhibition of biofilm formation in Pseudomonas aeruginosa PAO1 at 10 to 325 uM after 20 hrs by crystal violet assay relative to control; format: functional; settings: dose 10-325 µM
[17] = system: Pseudomonas aeruginosa; assay: Synergistic antibacterial activity against Pseudomonas aeruginosa PAO1 biofilm cells assessed as fold change in MPEM MIC by checker board assay; format: functional
[18] = system: Pseudomonas aeruginosa PAO1; assay: Inhibition of quorum sensing lasB in Pseudomonas aeruginosa PAO1 assessed as reduction in elastase level at 20 to 162.5 uM after 16 hrs by elastin Congo red method; settings: dose 20-162.5 µM
[19] = system: Pseudomonas aeruginosa PAO1; assay: Inhibition of quorum sensing RhlAB in Pseudomonas aeruginosa PAO1 assessed as reduction in rhamnolipid level at 20 to 162.5 uM after 48 hrs by sulfuric acid-orcinol method; settings: dose 20-162.5 µM
[20] = system: Pseudomonas aeruginosa; assay: Inhibition of biofilm formation in Pseudomonas aeruginosa PAO1after 20 hrs by crystal violet assay; format: functional, organism-based; settings: PAO1, dose 10-325 µM
[21] = system: Pseudomonas aeruginosa PAO1; assay: Inhibition of quorum sensing Rhl/PQS in Pseudomonas aeruginosa PAO1 assessed as reduction in pyocyanin level at 162.5 uM after 16 hrs relative to control
[22] = system: Pseudomonas aeruginosa; assay: Antibacterial activity against Pseudomonas aeruginosa ATCC 27853 biofilm cells assessed as reduction in bacterial growth after 2 days by resazurin dye based assay; format: functional; settings: ATCC 27853, 48 h, time 2 day
[23] = system: Pseudomonas aeruginosa PAO1; assay: Inhibition of quorum sensing system in Pseudomonas aeruginosa PAO1 assessed as reduction in swarming motility after 24 hrs; settings: dose 20-162.5 µM
[24] = system: Pseudomonas aeruginosa; assay: Antibacterial activity against Pseudomonas aeruginosa PAO1 biofilm cells assessed as reduction in microbial growth at 10 uM after 6 days in presence of MPEM; format: functional, organism-based; settings: time 6.0 day
[25] = system: Pseudomonas aeruginosa PAO1; assay: Inhibition of quorum sensing las in Pseudomonas aeruginosa PAO1 assessed as reduction in protease level at 162.5 uM after 16 hrs
[26] = system: Pseudomonas aeruginosa; assay: Synergistic antibacterial activity against Pseudomonas aeruginosa PAO1 biofilm cells assessed as FICI in presence of MPEM by checker board assay; format: functional
[27] = system: Pseudomonas aeruginosa; assay: Antibacterial activity against Pseudomonas aeruginosa PAO1 infected in Caenorhabditis elegans N2 strain assessed as reduction in bacterial growth at 162.5 uM after 120 hrs; format: functional, organism-based
[28] = system: Pseudomonas aeruginosa; assay: Antibacterial activity against Pseudomonas aeruginosa PAO1 infected in Caenorhabditis elegans N2 strain assessed as increase in Caenorhabditis elegans survival rate at 0.25 ug/ml up to 240 hrs relative to control; format: functional; settings: dose 0.25 µg/ml; time hrs <=240
[29] = system: Pseudomonas aeruginosa; assay: Ratio of MIC for antibacterial activity against Pseudomonas aeruginosa PAO1 biofilm cells to antibacterial activity against Pseudomonas aeruginosa PAO1 planktonic cells; format: functional
[30] = system: Pseudomonas aeruginosa; assay: Antibacterial activity against Pseudomonas aeruginosa PAO1 infected in Caenorhabditis elegans N2 strain assessed as increase in Caenorhabditis elegans survival rate at 0.25 ug/ml after 120 hrs relative to control; format: functional; settings: dose 0.25 µg/ml
[31] = system: Pseudomonas aeruginosa; assay: Antibacterial activity against Pseudomonas aeruginosa PAO1 infected in Caenorhabditis elegans N2 strain assessed as reduction in bacterial growth at 0.25 ug/ml after 120 hrs; format: functional, organism-based; settings: dose 0.25 µg/ml

## NC[C@H]1O[C@H](O[C@H]2[C@H](O)[C@@H](O[C@H]3O[C@H](CO)[C@@H](O)[C@H](N)[C@H]3O)[C@H](N)C[C@@H]2N)[C@H](N)C[C@@H]1O [TOBRAMYCIN]
[1]
  MIC: 2 µg/mL (≈ 4.28 µM)
[2]
  MIC: 8 µg/mL (≈ 17.1 µM)

## CCCCCCCCCC(=O)N[C@H]1CCOC1=O
[3]
  pIC50: 6.89

## O=C(CCCOc1ccccc1F)NN1CCOC1=O
[3]
  pIC50: 4.39
[4]
  Activity: inactive
[5]
  inhibition: Active

## O=C(CCCCCCOc1ccc(Cl)cc1)NN1CCOC1=O
[4]
  Activity: inactive

## NCC[C@H](O)C(=O)N[C@@H]1C[C@H](N)[C@@H](O[C@H]2O[C@H](CN)[C@@H](O)[C@H](O)[C@H]2O)[C@H](O)[C@H]1O[C@H]1O[C@H](CO)[C@@H](O)[C@H](N)[C@H]1O [AMIKACIN]
[1]
  MIC: 4 µg/mL (≈ 6.83 µM)
[2]
  MIC: 16 µg/mL (≈ 27.3 µM)

## O=C(CCCOc1cccc(F)c1)NN1CCOC1=O
[3]
  pIC50: 4.81
[4]
  Activity: inactive
[5]
  inhibition: Active

## O=C(CCCCOc1cccc(F)c1)NN1CCOC1=O
[3]
  pIC50: 4.20
[4]
  Activity: inactive
[5]
  inhibition: Active

## O=C(CCCSc1ccc(Cl)cc1)NN1CCOC1=O
[3]
  pIC50: 5.16
[4]
  Activity: inactive
[5]
  inhibition: Active

## CC(C)(O/N=C(\C(=O)N[C@@H]1C(=O)N2C(C(=O)[O-])=C(C[n+]3ccccc3)CS[C@H]12)c1csc(N)n1)C(=O)O [CEFTAZIDIME]
[1]
  MIC: 1 µg/mL (≈ 1.83 µM)
[2]
  MIC: 2 µg/mL (≈ 3.66 µM)

## O=C(O)c1cn(C2CC2)c2cc(N3CCNCC3)c(F)cc2c1=O [CIPROFLOXACIN]
[1]
  MIC: 0.08 µg/mL (≈ 0.241 µM)

## O=C(CCCOc1ccc(F)cc1)NN1CCOC1=O
[3]
  pIC50: 4.96
[4]
  Activity: inactive
[5]
  inhibition: Active

## O=C(CCCOc1ccc([N+](=O)[O-])cc1)NN1CCOC1=O
[3]
  pIC50: 4.67
[4]
  Activity: inactive
[5]
  inhibition: Active

## O=C(CCCOc1ccc(Br)cc1)NN1CCOC1=O
[6]
  inhibition: 57.9%
[7]
  Activity: inactive
[8]
  inhibition: Active
[9]
  Activity: Active
[10]
  Activity: 18.33%
[3]
  pIC50: 5.43
[11]
  MIC: > 1110 µg/mL
[12]
  Activity: 16%
[13]
  inhibition: 16.2%
[14]
  inhibition at 162.5 µM: 40.4%
[1]
  MIC: > 1110 µg/mL
[15]
  inhibition: Active
[16]
  inhibition (INH): 17.67%
[17]
  fold change (FC): 8
[18]
  inhibition: Active
[19]
  inhibition: Active
[20]
  inhibition: Dose-dependent effect
[21]
  inhibition: 22.5%
[22]
  MIC: > 1110 µg/mL
[2]
  MIC: > 1110 µg/mL
[4]
  Activity: inactive
[23]
  inhibition: Dose-dependent effect
[24]
  Activity: Active
[5]
  inhibition: Active
[25]
  inhibition: 14.9%
[26]
  fractional inhibitory concentration index (FICI): <0.5
[27]
  Activity: Active

## O=C(CCCCOc1ccc(F)cc1)NN1CCOC1=O
[3]
  pIC50: 4.64
[4]
  Activity: inactive
[5]
  inhibition: Active

## O=C(CCCOc1cccc(Cl)c1)NN1CCOC1=O
[3]
  pIC50: 4.42
[4]
  Activity: inactive
[5]
  inhibition: Active

## O=C(CCCCCOc1ccc(Cl)cc1)NN1CCOC1=O
[3]
  pIC50: 4.48
[4]
  Activity: inactive
[5]
  inhibition: Active

## O=C(CCCCCCOc1ccc(Br)cc1)NN1CCOC1=O
[4]
  Activity: inactive

## O=C(CCCCCCOc1ccc([N+](=O)[O-])cc1)NN1CCOC1=O
[4]
  Activity: inactive

## O=C(CCCOc1cc(F)cc(F)c1)NN1CCOC1=O
[3]
  pIC50: 4.21
[4]
  Activity: inactive
[5]
  inhibition: Active

## O=C(CCCCCCOc1ccc(Br)cc1Br)NN1CCOC1=O
[4]
  Activity: inactive

## C[C@@H](O)[C@H]1C(=O)N2C(C(=O)O)=C(S[C@@H]3CN[C@H](C(=O)N(C)C)C3)[C@H](C)[C@H]12 [MEROPENEM]
[28]
  Activity: 15.67%
[1]
  MIC: 0.25 µg/mL (≈ 0.652 µM)
[29]
  Ratio: 32
[2]
  MIC: 8 µg/mL (≈ 20.9 µM)
[30]
  Activity: 13.33%
[31]
  Activity: Active

## O=C(CCCCCCSc1ccc(Cl)cc1)NN1CCOC1=O
[4]
  Activity: inactive

## O=C(CCCCOc1ccc(Cl)cc1)NN1CCOC1=O
[3]
  pIC50: 4.40
[4]
  Activity: inactive
[5]
  inhibition: Active

## O=C(CCCOc1ccc(F)cc1F)NN1CCOC1=O
[3]
  pIC50: 4.71
[4]
  Activity: inactive
[5]
  inhibition: Active
